Experimental data as given in patent publication US20240033208A1, “BOTANICAL EXTRACT BLEND FOR USE IN SKIN CARE” (Shaklee Corporation, priority 2022, published 2024).

Key:
[1] = tested on: AGE formation in collagen; test: Collagen AGE prevention assay; assay type: biochemical
Experimental: AGE Prevention—50 μl of ice-cold collagen solution was added to the wells of a 96 well plate. The plate was incubated overnight at 37° C. to allow the collagen solution to gel. On the following day, 40 μl of either test material (prepared in assay buffer), aminoguanidine (positive control), or assay buffer (negative control) was added to the plate. After the materials were added, 10 μl of a 500 mM glyceraldehyde solution was added to all of the wells. The plate was then read using a fluorometer (355 nm excitation and 405 nm emission) and then incubated for 24 hours in a humidified incubator at 37C. On the following day the plate was read again. AGE formation was determined by subtracting the […] for each sample.

[2] = tested on: preexisting AGEs in collagen; test: Collagen AGE reduction assay; assay type: biochemical
Experimental: AGE Reduction—50 μl of ice-cold collagen solution was added to the wells of a 96 well plate. The plate was then incubated overnight at 37C to allow the collagen solution to gel. On the following day, 10 μl of a 500 mM glyceraldehyde solution was added to all of the wells and the plate was incubated for 24 hours in a humidified incubator at 37° C. On the following day 40 μl of either test material (prepared in assay buffer), aminoguanidine (positive control), or assay buffer (negative control) was added to the plate. The plate was then read using a fluorometer (355 nm excitation and 405 nm emission) and then incubated again for 24 hours in a humidified incubator at 37C. On the following day the plate was read again. AGE formation was determined by subtracting the initial fluorescent measurement from the final fluorescent measurement for each sample.

human recombinant MMP-1 = molecular target: T1, human recombinant MMP-1 (Homo sapiens, UniProt P03956); test: Collagenase (MMP-1) inhibition (thiopeptolide/DTNB, 412 nm); assay type: biochemical
T1 sequence (P03956 100-469): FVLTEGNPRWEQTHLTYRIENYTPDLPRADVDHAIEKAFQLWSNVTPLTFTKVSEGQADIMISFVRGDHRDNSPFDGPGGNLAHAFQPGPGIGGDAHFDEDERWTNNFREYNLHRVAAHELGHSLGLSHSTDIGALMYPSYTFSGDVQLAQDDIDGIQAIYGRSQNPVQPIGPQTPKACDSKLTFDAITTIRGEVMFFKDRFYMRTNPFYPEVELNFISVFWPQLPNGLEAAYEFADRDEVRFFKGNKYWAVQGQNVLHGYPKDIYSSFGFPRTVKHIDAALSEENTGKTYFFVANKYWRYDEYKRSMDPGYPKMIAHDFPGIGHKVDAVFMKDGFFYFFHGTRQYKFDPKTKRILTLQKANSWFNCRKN
Description: Matrix Metalloproteinase-1 (MMP-1) is an extracellular protease with an approximate molecular weight of 52-56 kD in its latent form. Upon cleavage of the proenzyme, the 22-46 kD MMP-1 becomes an active enzyme and can degrade many substrates including collagen, gelatin, and entactin. In human skin, increased MMP-1 activity can be induced via some disease states, exposure to UV irradiation or as part of the natural aging process. This can result in an imbalanced state where the degradation of collagen by MMP-1 exceeds its rate of replacement. Therefore, materials that inhibit MMP-1 activity can be beneficial for skin care. To screen inhibitors of MMP-1, human recombinant MMP-1 was incubated in the presence of a thiopeptolide substrate, potential inhibitors, and 5,5′-dithiobis(2-nitrobenzoic acid) (DTNB). When the thiopeptolide substrate is broken down by MMP-1, it releases a sulfhydryl group that can react with DTNB and form 2-nitro-5-thiobenzoic acid, which can be detected spectrophotometrically at 412 nm. Thus, in the presence of inhibitors, absorbance will be decrease relative to the non-inhibited enzyme.

elastase = test: Elastase inhibition (fibroblast lysate, STANA substrate, 405 nm); assay type: biochemical, human
Experimental: Human dermal fibroblasts were cultured and used as a source of the elastase enzyme. Elastase was partially purified from fibroblasts by lysing the cells in an elastase buffer and retaining the soluble portion of the lysate. Portions of this fibroblast lysate were then be incubated with test materials and a synthetic elastase substrate, Suc-([…])-p-Nitroaniline (STANA). Elastase acts upon the substrate, releasing p-nitroaniline, which can be detected with a spectrophotometer by measuring absorbance at a wavelength of 405 nm. Inhibition of elastase enzyme is indicated by a decrease in the amount of released p-nitroaniline as compared to the uninhibited enzyme.

[3] = tested on: MatTek EpiDerm tissue (UVB induced CPD formation in genomic DNA); test: Cyclobutane pyrimidine dimer (CPD) assay, UVB, ELISA; assay type: cell-based, human; details: for CPD in genomic DNA: pretreated overnight before UVB
Experimental: The testing system used for this assay was the MatTek EpiDerm, a skin model which consists of normal human-derived epidermal keratinocytes cultured to form a multilayered, highly differentiated model of the human epidermis. For this study, tissues were treated topically either overnight with the test materials prior to UVB exposure (pretreat group to assess prevention). Following treatment, DNA was extracted from the EpiDerm tissues and assayed for CPD content using an ELISA based method.

[4] = ingredients tested individually at the concentrations used in the blends

N=C(N)NN [Aminoguanidine, aminoguanidine, reference compound]
Percent AGE Prevention ([1]; 8 mM): 56.8 ± 0.5% | Percent AGE Reduction ([2]; 8 mM): 33.4 ± 3.3%

COc1ccc(S(=O)(=O)N(CC(=O)NO)CC(C)C)cc1 [NNGH, reference compound]
Percent Inhibition (collagenase) (human recombinant MMP-1; 2 uM): 94 ± 3%

CC(C)C[C@H](NP(=O)(O)O[C@@H]1O[C@@H](C)[C@H](O)[C@@H](O)[C@H]1O)C(=O)N[C@@H](Cc1c[nH]c2ccccc12)C(=O)O [Phosphoramidon, reference compound]
Percent Inhibition (elastase) (elastase; 0.2 mM): 97 ± 0%

Oc1ccc(/C=C/c2cc(O)cc(O)c2)cc1 [Resveratrol, 5-[(E)-2-(4-Hydroxyphenyl)ethen-1-yl]benzene-1,3-diol]
Percent Inhibition (elastase) (elastase; 0.075%): 30 ± 3% | Percent Inhibition (elastase) (elastase; 0.08%): 33 ± 2% | elastase inhibition (in words) (elastase; summary of Table 10): effective at inhibiting elastase activity on its own | Percent AGE Prevention ([1]; 0.0375%): 20.8 ± 2.4% | Percent AGE Prevention ([1]; 0.075%): 38.4 ± 7.1% | preventing AGE formation (in words) [1, 4]: significantly effective | Percent Inhibition (collagenase) (human recombinant MMP-1; 0.075%): 4 ± 0% | Percent Inhibition (collagenase) (human recombinant MMP-1; 0.08%): 7 ± 1% | % Prevention of genomic DNA CPD formation ([3]; 0.0375%): 63% | % Prevention of genomic DNA CPD formation ([3]; 0.075%): 75% | CPD in genomic DNA ([3]; 0.0375%): 1.601 ± 0.180 ng/mL | CPD in genomic DNA ([3]; 0.075%): 1.115 ± 0.085 ng/mL | Percent AGE Reduction ([2]; 0.0375%): 28.2 ± 1.2% | Percent AGE Reduction ([2]; 0.075%): 32.8 ± 2.8% | reducing existing AGEs (in words) [2, 4]: significantly effective

Cc1c(C)c2c(c(C)c1O)CCC(C)(C(=O)O)O2 (stereo not drawn) [Trolox, reference compound]
% Prevention of genomic DNA CPD formation ([3]; 150 ug/ml): 67% | CPD in genomic DNA ([3]; 150 ug/ml): 1.439 ± 0.088 ng/mL
